Reference: PubChem BioAssay AID330 (DTP/NCI, 2004)
Where “and” joins values, the source holds several entries; their conditions need not be identical. Equal entries are not always repeated. Toxic doses and inconclusive results are not listed. Rule for the calls: active = survival T/C of 150% or more; inactive = T/C below 125% in these data.

System: P388 leukemia ip, CD2F1 mice, survival T/C
Assay: NCI In Vivo Anticancer Drug Screen. Data for tumor model P388 Leukemia (intraperitoneal) in CD2F1 (CDF1) mice
Conditions: endpoint: median survival time, higher = longer survival
Method in brief: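 Mice carrying the transplanted tumor received test compound or vehicle. Survival was recorded in each group, and the value is the treated-group measurement divided by that of the vehicle-treated control group.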

[1] = dose: 60.0 mg/kg/injection, schedule: Q01DX005 (ip), vehicle: saline with Tween-80
[2] = dose: 120.0 mg/kg/injection, schedule: Q01DX005 (ip), vehicle: saline with Tween-80
[3] = dose: 240.0 mg/kg/injection, schedule: Q01DX005 (ip), vehicle: saline with Tween-80
[4] = dose: 30.0 mg/kg/injection, schedule: Q01DX005 (ip), vehicle: saline with Tween-80
[5] = dose: 12.5 mg/kg/injection, schedule: Q01DX009 (ip), vehicle: water
[6] = dose: 25.0 mg/kg/injection, schedule: Q01DX009 (ip), vehicle: water
[7] = dose: 50.0 mg/kg/injection, schedule: Q01DX009 (ip), vehicle: water
[8] = dose: 100.0 mg/kg/injection, schedule: Q01DX009 (ip), vehicle: water
[9] = dose: 200.0 mg/kg/injection, schedule: Q01DX009 (ip), vehicle: water
[10] = dose: 100.0 mg/kg/injection, schedule: Q04DX003 (ip), vehicle: Klucel (hydroxypropylcellulose) (HPC)
[11] = dose: 200.0 mg/kg/injection, schedule: Q04DX003 (ip), vehicle: Klucel (hydroxypropylcellulose) (HPC)

Measured: T/C

CC(C)(C)c1cc(C2C(C#N)C(=O)NC(=O)C2C#N)cc(C(C)(C)C)c1O (stereo unspecified)
inactive: dose: 50.0 mg/kg/injection, schedule: Q01DX009 (ip), vehicle: Klucel (hydroxypropylcellulose) (HPC) 103 % of control | dose: 100.0 mg/kg/injection, schedule: Q01DX009 (ip), vehicle: Klucel (hydroxypropylcellulose) (HPC) 100 % of control | dose: 200.0 mg/kg/injection, schedule: Q01DX009 (ip), vehicle: Klucel (hydroxypropylcellulose) (HPC) 94 % of control

CC(C)C(Nc1ncnc2nc[nH]c12)C(=O)O (stereo unspecified)
inactive: dose: 50.0 mg/kg/injection, schedule: Q01DX005 (ip), vehicle: saline with Tween-80 102 % of control | dose: 100.0 mg/kg/injection, schedule: Q01DX005 (ip), vehicle: saline with Tween-80 102 % of control | dose: 200.0 mg/kg/injection, schedule: Q01DX005 (ip), vehicle: saline with Tween-80 103 % of control

COC(=O)C1CC2c3ccccc3C1c1ccccc12 (stereo unspecified)
inactive: [1] 99 % of control | [2] 99 % of control | [3] 101 % of control

O=S(=O)(O)N(O)c1ccccc1
inactive: dose: 25.0 mg/kg/injection, schedule: Q01DX001 (ip), vehicle: saline 103 % of control and 97 % of control | dose: 50.0 mg/kg/injection, schedule: Q01DX001 (ip), vehicle: saline 113 % of control and 95 % of control | dose: 100.0 mg/kg/injection, schedule: Q01DX001 (ip), vehicle: saline 106 % of control and 124 % of control | dose: 200.0 mg/kg/injection, schedule: Q01DX001 (ip), vehicle: saline 94 % of control

O=c1c2ccccc2c2nccn2c2ccccc12
inactive: [1] 90 % of control | [2] 90 % of control | [3] 96 % of control

CCN(CC)OC(=O)/C=C/c1ccccc1
inactive: [4] 95 % of control | [1] 98 % of control and 93 % of control | [2] 86 % of control

O=C(O)c1ccc(O)c(O)c1.[NH2-].[NH2-].[NH2-].[NH2-].[Ru+4]
inactive: dose: 87.5 mg/kg/injection, schedule: Q04DX002 (ip), vehicle: saline 104 % of control | dose: 175.0 mg/kg/injection, schedule: Q04DX002 (ip), vehicle: saline 108 % of control | dose: 350.0 mg/kg/injection, schedule: Q04DX002 (ip), vehicle: saline 105 % of control

C(=C\c1cc2ccc(C3=NCCN3)cc2o1)/c1cc2ccc(C3=NCCN3)cc2o1
inactive: dose: 12.5 mg/kg/injection, schedule: Q04DX003 (ip), vehicle: suspension in saline 107 % of control | dose: 25.0 mg/kg/injection, schedule: Q04DX003 (ip), vehicle: suspension in saline 114 % of control | dose: 50.0 mg/kg/injection, schedule: Q04DX003 (ip), vehicle: suspension in saline 106 % of control | dose: 100.0 mg/kg/injection, schedule: Q04DX003 (ip), vehicle: suspension in saline 122 % of control

O=C1NC(CN2CCCC(O)C2)C(=O)NC1CN1CCCC(O)C1 (stereo unspecified)
inactive: [5] 110 % of control and 95 % of control | [6] 96 % of control and 90 % of control | [7] 96 % of control and 110 % of control | [8] 122 % of control and 114 % of control | [9] 116 % of control

Cc1cc[c]([Sb]2[O]C(CO)C(C(O)C(O)C(=O)O)[O]2)cc1 (stereo unspecified)
inactive: dose: 25.0 mg/kg/injection, schedule: Q01DX005 (ip), vehicle: saline 101 % of control and 104 % of control and 105 % of control

Clc1ccc(CN2COc3c(ccc4cccnc34)C2)cc1
inactive: dose: 50.0 mg/kg/injection, schedule: Q04DX003 (ip), vehicle: Klucel (hydroxypropylcellulose) (HPC) 101 % of control and 115 % of control | [10] 101 % of control and 105 % of control and 97 % of control | [11] 100 % of control and 103 % of control and 123 % of control | dose: 400.0 mg/kg/injection, schedule: Q04DX003 (ip), vehicle: Klucel (hydroxypropylcellulose) (HPC) 93 % of control

CC(C)/C=C1\C(=O)NCC(=O)N1Cc1ccccc1
inactive: dose: 75.0 mg/kg/injection, schedule: Q01DX001 (ip), vehicle: Klucel (hydroxypropylcellulose) (HPC) 103 % of control | dose: 150.0 mg/kg/injection, schedule: Q01DX001 (ip), vehicle: Klucel (hydroxypropylcellulose) (HPC) 100 % of control | dose: 300.0 mg/kg/injection, schedule: Q01DX001 (ip), vehicle: Klucel (hydroxypropylcellulose) (HPC) 94 % of control

CC(C)CC(=O)CC(=O)C(C)(C)C.CC(C)CC(=O)CC(=O)C(C)(C)C.CC(C)CC(=O)CC(=O)C(C)(C)C.CC(C)CC(=O)CC(=O)C(C)(C)C.[Ce]
inactive: dose: 50.0 mg/kg/injection, schedule: Q01DX009 (ip), vehicle: distilled water + alcohol 106 % of control | dose: 100.0 mg/kg/injection, schedule: Q01DX009 (ip), vehicle: distilled water + alcohol 103 % of control | dose: 200.0 mg/kg/injection, schedule: Q01DX009 (ip), vehicle: distilled water + alcohol 106 % of control

Cc1cc(Cl)cc2[s+]snc12
inactive: [1] 100 % of control | [2] 101 % of control | [3] 92 % of control

COC1OC(C(C)O)C2OC(C)(C)OC12 (stereo unspecified)
inactive: [4] 101 % of control | [1] 104 % of control and 106 % of control | [2] 108 % of control | [3] 106 % of control and 110 % of control

O=C(O)CSC(CC(=O)O)C(F)(F)C(F)(F)C(F)(F)F (stereo unspecified)
inactive: dose: 176.0 mg/kg/injection, schedule: Q04DX003 (ip), vehicle: saline 100 % of control | dose: 264.0 mg/kg/injection, schedule: Q04DX003 (ip), vehicle: saline 95 % of control

CC(=O)OCC(=O)[C@@]1(O)CC[C@H]2[C@@H]3CCC4=CC(=O)[C@H](C)C[C@]4(C)[C@@]3(F)[C@@H](O)C[C@@]21C
inactive: [10] 100 % of control | [11] 110 % of control

CC1=CP(=O)(c2ccccc2)CC1 (stereo unspecified) (tested in a mixture with another compound)
inactive: dose: 60.0 mg/kg/injection, schedule: Q01DX005 (ip), vehicle: saline 93 % of control | dose: 120.0 mg/kg/injection, schedule: Q01DX005 (ip), vehicle: saline 99 % of control | dose: 240.0 mg/kg/injection, schedule: Q01DX005 (ip), vehicle: saline 102 % of control

COC(=O)C1=C(OC(C)=O)c2ccccc2CS1
inactive: dose: 50.0 mg/kg/injection, schedule: Q01DX001 (ip), vehicle: Klucel (hydroxypropylcellulose) (HPC) 98 % of control | dose: 100.0 mg/kg/injection, schedule: Q01DX001 (ip), vehicle: Klucel (hydroxypropylcellulose) (HPC) 92 % of control | dose: 200.0 mg/kg/injection, schedule: Q01DX001 (ip), vehicle: Klucel (hydroxypropylcellulose) (HPC) 96 % of control

CC(=O)NCCc1nc(-c2nc(C(=O)NCCCCN)cs2)cs1
inactive: [5] 100 % of control | [6] 98 % of control and 109 % of control | [7] 100 % of control and 113 % of control | [8] 103 % of control and 119 % of control | [9] 107 % of control | dose: 400.0 mg/kg/injection, schedule: Q01DX009 (ip), vehicle: water 104 % of control

COC1CC(O)C2OC(c3ccccc3)OCC2O1 (stereo unspecified)
inactive: dose: 100.0 mg/kg/injection, schedule: Q01DX001 (ip), vehicle: saline with Tween-80 101 % of control | dose: 200.0 mg/kg/injection, schedule: Q01DX001 (ip), vehicle: saline with Tween-80 105 % of control | dose: 400.0 mg/kg/injection, schedule: Q01DX001 (ip), vehicle: saline with Tween-80 99 % of control

CC/C(C)=C1\OC(=O)C(C)C(O)C(Cc2cccnc2)NC(=O)C(NC(=O)c2ncccc2O)C(C)OC1=O (stereo unspecified)
inactive: dose: 18.75 mg/kg/injection, schedule: Q01DX009 (ip), vehicle: saline with Tween-80 88 % of control | dose: 37.5 mg/kg/injection, schedule: Q01DX009 (ip), vehicle: saline with Tween-80 86 % of control | dose: 150.0 mg/kg/injection, schedule: Q01DX009 (ip), vehicle: saline with Tween-80 86 % of control

CCN(CC)Cc1cc(C(=O)CC(c2ccccc2)S(=O)(=O)c2ccc(C)cc2)ccc1O (stereo unspecified)
inactive: dose: 1.56 mg/kg/injection, schedule: Q01DX009 (ip), vehicle: saline 100 % of control | dose: 3.12 mg/kg/injection, schedule: Q01DX009 (ip), vehicle: saline 94 % of control | dose: 6.25 mg/kg/injection, schedule: Q01DX009 (ip), vehicle: saline 97 % of control | dose: 50.0 mg/kg/injection, schedule: Q01DX009 (ip), vehicle: saline 90 % of control

CC1S/C(=N\N=C\c2ccc(Cl)cc2)N=C1c1c(O)c2ccccc2oc1=O (stereo unspecified)
inactive: dose: 60.0 mg/kg/injection, schedule: Q01DX005 (ip), vehicle: Klucel (hydroxypropylcellulose) (HPC) 93 % of control | dose: 60.0 mg/kg/injection, schedule: Q02DX002 (ip), vehicle: Klucel (hydroxypropylcellulose) (HPC) 91 % of control | dose: 120.0 mg/kg/injection, schedule: Q01DX005 (ip), vehicle: Klucel (hydroxypropylcellulose) (HPC) 91 % of control | dose: 120.0 mg/kg/injection, schedule: Q02DX002 (ip), vehicle: Klucel (hydroxypropylcellulose) (HPC) 94 % of control | dose: 240.0 mg/kg/injection, schedule: Q01DX005 (ip), vehicle: Klucel (hydroxypropylcellulose) (HPC) 86 % of control | dose: 240.0 mg/kg/injection, schedule: Q02DX002 (ip), vehicle: Klucel (hydroxypropylcellulose) (HPC) 94 % of control
